According to patent US20250115620A1, “BRIDGED TRICYCLIC CARBAMOYLPYRIDONE COMPOUNDS AND USES THEREOF” (Gilead Sciences, Inc., priority 2022, published 2025):
pEC50: −log10 of the molar value. Where two headings read alike, the source gives them in different places.

Legend:
HIV-1 (IIIB) = test: microbe, parasite or virus in culture; type: cell-based; conditions: Human immunodeficiency virus 1, IIIB, MT4, 120 h, read-out: MT4 EC50
pLAI reporter virus = test: microbe, parasite or virus in culture; type: cell-based, HIV; conditions: Human immunodeficiency virus 1, MT4, 72 h
in vitro = conditions: human; for CC50 at 5 days: uninfected MT-4 cells
[1] = HIV-1 (IIIB) in MT-4 cells, 5 days incubation, Cell Titer Glo

Row | Compound | pEC50 (HIV-1 (IIIB); [1]) | pEC50 (pLAI reporter virus; read-out: RLUC 50% HS EC50) | pEC50 (pLAI reporter virus; read-out: RLUC CCM EC50) | CC50 at 5 days (in vitro) | pEC50 (HIV-1 (IIIB)) | CC50 (in vitro)
1 | CC1=NCC2(CC[C@H](C)N3C[C@H]2n2cc(C(=O)NCc4ccc(F)cc4F)c(=O)c(O)c2C3=O)O1 (stereo partly drawn) [Example 56, (3′S,7′R)—N-(2,4-difluorobenzyl)-12′-hydroxy-2,3′-dimethyl-1′,11′-dioxo-1′,4′,5′,11′-tetrahydro-3′H,4H,7′H-spiro[oxazole-5,6′-[2,7]methanopyrido[1,2-a][1,4]diazonine]-10′-carboxamide] | 8.21 | 8.30 | 8.47 | ≥ 50000 nM |  | 
2 | C[C@H]1CC[C@@]2(CNC(=O)C2)[C@H]2CN1C(=O)c1c(O)c(=O)c(C(=O)NCc3c(F)cc(F)cc3F)cn12 [Example 57, (3R,3′S, 7′S)-12′-hydroxy-3′-methyl-1′,5,11′-trioxo-N-(2,4,6-trifluorobenzyl)-1′,4′,5′,11′-tetrahydro-3′H, 7′H-spiro[pyrrolidine-3,6′-[2,7]methanopyrido[ ],2-a][1,4]diazonine-10′-carboxamide] |  | 8.22 | 7.86 |  | 7.55 | ≥ 50000 nM
3 | C[C@H]1CC[C@@]2(CN(C)C(=O)O2)[C@H]2CN1C(=O)c1c(O)c(=O)c(C(=O)NCc3c(F)cc(F)cc3F)cn12 [Example 60, (3′S,5R,7′R)-12′-hydroxy-3,3′-dimethyl-1′,2,11′-trioxo-N-(2,4,6-trifluorobenzyl)-1′,4′,5′,11′-tetrahydro-3′H,7′H-spiro[oxazolidine-5,6′-[2,7]methanopyrido[1,2-a][1,4]diazonine]-10′-carboxamide] | 7.10 | 7.51 | 7.60 | ≥ 50000 nM |  | 
4 | C[C@H]1CC[C@]2(CC(=O)N(C)C2)[C@H]2CN1C(=O)c1c(O)c(=O)c(C(=O)NCc3c(F)cc(F)cc3F)cn12 [Example 61, (3R,3′S,7′S)-12′-hydroxy-1,3′-dimethyl-1′,5,11′-trioxo-N-(2,4,6-trifluorobenzyl)-1′,4′,5′,11′-tetrahydro-3′H,7′H-spiro[pyrrolidine-3,6′-[2,7]methanopyrido[1,2-a][1,4]diazonine]-10′-carboxamide] | 8.12 | 8.47 | 8.72 | ≥ 50000 nM |  | 
5 | C[C@H]1CC[C@@]2(CC(=O)N(C)C2)[C@H]2CN1C(=O)c1c(O)c(=O)c(C(=O)NCc3c(F)cc(F)cc3F)cn12 [Example 62, (3S,3′S,7′S)-12′-hydroxy-1,3′-dimethyl-1′,5,11′-trioxo-N-(2,4,6-trifluorobenzyl)-1′,4′,5′,11′-tetrahydro-3′H,7′H-spiro[pyrrolidine-3,6′-[2,7]methanopyrido[1,2-a][1,4]diazonine]-10′-carboxamide] | 7.51 | 7.87 | 8.11 | ≥ 50000 nM |  | 
6 | CCN1C[C@@]2(CC[C@H](C)N3C[C@H]2n2cc(C(=O)NCc4c(F)cc(F)cc4F)c(=O)c(O)c2C3=O)OC1=O [Example 63, (3′S,5R,7′R)-3-ethyl-12′-hydroxy-3′-methyl-1′,2,11′-trioxo-N-(2,4,6-trifluorobenzyl)-1′,4′,5′,11′-tetrahydro-3′H,7′H-spiro[oxazolidine-5,6′-[2,7]methanopyrido[1,2-a][1,4]diazonine]-10′-carboxamide] | 7.34 | 7.81 | 7.95 | ≥ 50000 nM |  | 
7 | COC1=NO[C@@]2(CC[C@H](C)N3C[C@H]2n2cc(C(=O)NCc4ncc(F)c(Cl)c4F)c(=O)c(O)c2C3=O)C1 [Example 64, (3′S,5S,7′R)—N-((4-chloro-3,5-difluoropyridin-2-yl)methyl)-12′-hydroxy-3-methoxy-3′-methyl-1′,11′-dioxo-1′,4′,5′,11′-tetrahydro-3′H,4H,7′H-spiro[isoxazole-5,6′-[2,7]methanopyrido[1,2-a][1,4]diazonine]-10′-carboxamide] |  | 6.52 | 9.22 | 22900 nM | 8.54 | 
8 | COC1=NO[C@@]2(CC[C@H](C)N3C[C@H]2n2cc(C(=O)NCc4cc(F)c(F)cc4F)c(=O)c(O)c2C3=O)C1 [Example 65, (3′S,5S,7′R)-12′-hydroxy-3-methoxy-3′-methyl-1′,11′-dioxo-N-(2,4,5-trifluorobenzyl)-1′,4′,5′,11′-tetrahydro-3′H,4H,7′H-spiro[isoxazole-5,6′-[2,7]methanopyrido[1,2-a][1,4]diazonine]-10′-carboxamide] | 8.80 | 6.97 | 9.22 | 26300 nM |  | 
9 | C[C@H]1CC[C@]2(CC(CF)=NO2)[C@H]2CN1C(=O)c1c(O)c(=O)c(C(=O)NCc3ncc(F)c(Cl)c3F)cn12 [Example 66, (3′S,5S,7′R)—N-((4-chloro-3,5-difluoropyridin-2-yl)methyl)-3-(fluoromethyl)-12′-hydroxy-3′-methyl-1′,11′-dioxo-1′,4′,5′,11′-tetrahydro-3′H,4H,7′H-spiro[isoxazole-5,6′-[2,7]methanopyrido[1,2-a][1,4]diazonine]-10′-carboxamide] | 8.41 | 6.25 | 9.10 | 30100 nM |  | 
10 | CCC1=NO[C@@]2(CC[C@H](C)N3C[C@H]2n2cc(C(=O)NCc4c(F)cc(F)cc4F)c(=O)c(O)c2C3=O)C1 [Example 67, (3′S,5S,7′R)-3-ethyl-12′-hydroxy-3′-methyl-1′,11′-dioxo-N-(2,4,6-trifluorobenzyl)-1′,4′,5′,11′-tetrahydro-3′H,4H,7′H-spiro[isoxazole-5,6′-[2,7]methanopyrido[1,2-a][1,4]diazonine]-10′-carboxamide] | 8.89 | 6.72 | 9.52 | 20000 nM |  | 
11 | CCCC1=NO[C@@]2(CC[C@H](C)N3C[C@H]2n2cc(C(=O)NCc4c(F)cc(F)cc4F)c(=O)c(O)c2C3=O)C1 [Example 68, (3′S,5S,7′R)-12′-hydroxy-3′-methyl-1′,11′-dioxo-3-propyl-N-(2,4,6-trifluorobenzyl)-1′,4′,5′,11′-tetrahydro-3′H,4H,7′H-spiro[isoxazole-5,6′-[2,7]methanopyrido[1,2-a][1,4]diazonine]-10′-carboxamide] | 8.92 | 7.07 | 9.52 | 15700 nM |  | 
12 | C[C@H]1CC[C@]2(CC(CCF)=NO2)[C@H]2CN1C(=O)c1c(O)c(=O)c(C(=O)NCc3c(F)cc(F)cc3F)cn12 [Example 69, (3′S,5S,7′R)-3-(2-fluoroethyl)-12′-hydroxy-3′-methyl-1′,11′-dioxo-N-(2,4,6-trifluorobenzyl)-1′,4′,5′,11′-tetrahydro-3′H,4H,7′H-spiro[isoxazole-5,6′-[2,7]methanopyrido[1,2-a][1,4]diazonine]-10′-carboxamide] | 8.89 | 7.03 | 9.70 | 26300 nM |  | 
13 | C[C@@H](F)C1=NO[C@@]2(CC[C@H](C)N3C[C@H]2n2cc(C(=O)NCc4c(F)cc(F)cc4F)c(=O)c(O)c2C3=O)C1 [Example 70, (3′S,5S,7′R)-3-((R)-1-fluoroethyl)-12′-hydroxy-3′-methyl-1′,11′-dioxo-N-(2,4,6-trifluorobenzyl)-1′,4′,5′,11′-tetrahydro-3′H,4H,7′H-spiro[isoxazole-5,6′-[2,7]methanopyrido[1,2-a][1,4]diazonine]-10′-carboxamide] | 8.89 | 6.75 | 9.40 | 26600 nM |  | 
14 | C[C@H]1CC[C@]2(CC(C(C)(F)F)=NO2)[C@H]2CN1C(=O)c1c(O)c(=O)c(C(=O)NCc3c(F)cc(F)cc3F)cn12 [Example 71, (3′S,5S,7′R)-3-(1,1-difluoroethyl)-12′-hydroxy-3′-methyl-1′,11′-dioxo-N-(2,4,6-trifluorobenzyl)-1′,4′,5′,11′-tetrahydro-3′H,4H,7′H-spiro[isoxazole-5,6′-[2,7]methanopyrido[1,2-a][1,4]diazonine]-10′-carboxamide] | 8.48 | 7.08 | 9.70 | 32100 nM |  | 
15 | C[C@H]1CC[C@]2(CC=NO2)[C@H]2CN1C(=O)c1c(O)c(=O)c(C(=O)NCc3c(F)cc(F)cc3F)cn12 [Example 72, (3′S,5S,7′R)-12′-hydroxy-3′-methyl-1′,11′-dioxo-N-(2,4,6-trifluorobenzyl)-1′,4′,5′,11′-tetrahydro-3′H,4H,7′H-spiro[isoxazole-5,6′-[2,7]methanopyrido[1,2-a][1,4]diazonine]-10′-carboxamide] | 8.92 | 6.97 | 9.52 | 31900 nM |  | 
16 | C[C@H]1CC[C@]2(CC(C(F)(F)F)=NO2)[C@H]2CN1C(=O)c1c(O)c(=O)c(C(=O)NCc3c(F)cc(F)cc3F)cn12 [Example 73, (3′S,5S,7′R)-12′-hydroxy-3′-methyl-1′,11′-dioxo-N-(2,4,6-trifluorobenzyl)-3-(trifluoromethyl)-1′,4′,5′,11′-tetrahydro-3′H,4H,7′H-spiro[isoxazole-5,6′-[2,7]methanopyrido[1,2-a][1,4]diazonine]-10′-carboxamide] | 8.96 | 7.19 | 9.70 | 31200 nM |  | 
17 | C[C@H]1CC[C@]2(CC(N3CCC3)=NO2)[C@H]2CN1C(=O)c1c(O)c(=O)c(C(=O)NCc3c(F)cc(F)cc3F)cn12 [Example 74, (3′S,5S,7′R)-3-(azetidin-1-yl)-12′-hydroxy-3′-methyl-1′,11′-dioxo-N-(2,4,6-trifluorobenzyl)-1′,4′,5′,11′-tetrahydro-3′H,4H,7′H-spiro[isoxazole-5,6′-[2,7]methanopyrido[1,2-a][1,4]diazonine]-10′-carboxamide] |  | 8.31 | 9.40 | 22300 nM | 8.68 | 
